According to the supplement of paper PMC10307832:

Experiments:
Experiment in all cases: relative viability (nuclei count vs DMSO), 5 days (fraction); higher = more cells survive
[1] = compound: C[C@@H](N)c1ccc(C(=O)Nc2ccnc3[nH]ccc23)cc1 + N=C(N)NC(=N)NCCc1ccccc1 [Phenformin] (partner 250 µM)
In short: (§1)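 One day after seeding in 1536-well plates, lung cancer cell lines were dosed by pin tool. Dosing was either single-drug or a fixed anchor-drug dose plus five library-drug doses (not always all listed) in √10 steps. After 5 days, nuclei were stained in one fix-and-stain step and counted on 4× images, and relative viability is the nuclei count of treated wells over that of vehicle wells, given as the median of duplicate plates.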

[2] = compound: C[C@@H](N)c1ccc(C(=O)Nc2ccnc3[nH]ccc23)cc1 + Cc1nc(Nc2ncc(C(=O)Nc3c(C)cccc3Cl)s2)cc(N2CCN(CCO)CC2)n1 [Dasatinib] (partner 0.075 µM)
In short: as §1

[3] = compound: C[C@@H](N)c1ccc(C(=O)Nc2ccnc3[nH]ccc23)cc1 + NC(=O)Nc1cc(-c2cccc(F)c2)sc1C(=O)N[C@H]1CCCNC1 [AZD7762] (partner 0.2 µM)
In short: as §1

Tanzisertib + Decitabine = compound: O[C@H]1CC[C@H](Nc2ncc3nc(Nc4c(F)cc(F)cc4F)n([C@H]4CCOC4)c3n2)CC1 [Tanzisertib] + Nc1ncn([C@H]2C[C@H](O)[C@@H](CO)O2)c(=O)n1 [Decitabine] (partner 2 µM)
In short: as §1

Row | Cell Line | relative viability ([1]; first compound 0.04 µM) | relative viability ([1]; first compound 0.1265 µM) | relative viability ([1]; first compound 0.4 µM) | relative viability ([1]; first compound 1.265 µM) | relative viability ([1]; first compound 4 µM) | relative viability ([2]; first compound 0.04 µM) | relative viability ([2]; first compound 0.1265 µM) | relative viability ([2]; first compound 0.4 µM) | relative viability ([2]; first compound 1.265 µM) | relative viability ([2]; first compound 4 µM) | relative viability ([3]; first compound 0.1265 µM) | relative viability ([3]; first compound 0.4 µM) | relative viability ([3]; first compound 1.265 µM) | relative viability ([3]; first compound 4 µM) | relative viability (Tanzisertib + Decitabine; first compound 0.08 µM) | relative viability (Tanzisertib + Decitabine; first compound 0.253 µM) | relative viability (Tanzisertib + Decitabine; first compound 0.8 µM) | relative viability (Tanzisertib + Decitabine; first compound 2.53 µM) | relative viability (Tanzisertib + Decitabine; first compound 8 µM) | relative viability ([3]; first compound 0.04 µM)
1 | HCC-827 | 0.424 | 0.462 | 0.423 | 0.394 | 0.406 | 0.411 | 0.466 | 0.433 | 0.46 | 0.267 | 0.286 | 0.247 | 0.329 | 0.275 | 0.338 | 0.372 | 0.257 | 0.367 | 0.207 | –
2 | HOP-62 | 0.607 | 0.609 | 0.636 | 0.552 | 0.607 | 0.435 | 0.632 | 0.617 | 0.515 | 0.303 | 0.471 | 0.746 | 0.685 | 0.402 | 0.212 | 0.236 | 0.217 | 0.248 | 0.215 | 0.534
3 | LC-2-ad | 0.549 | 0.599 | 0.609 | – | 0.558 | 0.717 | 0.639 | 0.814 | – | 0.389 | 0.787 | 0.823 | 0.787 | 0.599 | 0.774 | 0.788 | 0.777 | 0.806 | 0.722 | 0.763
4 | LCLC-97TM1 | 0.418 | 0.458 | 0.521 | 0.365 | 0.427 | 0.989 | 0.905 | 0.984 | 0.879 | 0.794 | 0.234 | 0.425 | 0.314 | 0.639 | 0.25 | 0.264 | 0.201 | 0.245 | 0.228 | 0.302
5 | LCLC-103H | 0.284 | 0.351 | 0.329 | 0.268 | 0.308 | 0.363 | 0.506 | 0.474 | 0.285 | 0.279 | 0.77 | 0.757 | 0.658 | 0.522 | 0.763 | 0.768 | 0.711 | 0.672 | 0.72 | 0.709
6 | LK-2 | 0.325 | – | 0.744 | – | 0.636 | 0.375 | – | 0.339 | – | 0.424 | 0.385 | 0.603 | 0.434 | 0.621 | 0.325 | 0.379 | 0.217 | 0.381 | 0.221 | 0.493
7 | LOU-NH91 | 0.589 | 0.628 | 0.672 | 0.28 | 0.646 | 0.425 | 0.571 | 0.527 | 0.492 | 0.394 | 0.782 | 0.751 | 0.628 | 0.518 | 0.869 | 0.82 | 0.837 | 0.805 | 0.635 | 0.622
8 | LU99A | – | 0.924 | 0.768 | 0.605 | 0.635 | – | 0.507 | 0.536 | 0.495 | 0.508 | 0.354 | 0.467 | 0.511 | 0.771 | 1.03 | 0.88 | 0.984 | 0.874 | 0.911 | –
9 | LXF-289 | 0.509 | 0.524 | 0.525 | 0.569 | 0.496 | 0.105 | 0.234 | 0.185 | 0.11 | 0.116 | 1.09 | 1.23 | 1.26 | 0.934 | 0.419 | 0.379 | 0.387 | 0.416 | 0.39 | 1.07
10 | NCI-H520 | 0.635 | 0.603 | 0.702 | 0.404 | 0.656 | 0.212 | 0.205 | 0.181 | 0.219 | 0.196 | – | – | – | – | 0.565 | 0.483 | 0.533 | 0.491 | 0.459 | –
11 | NCI-H661 | 0.222 | 0.274 | 0.247 | 0.224 | 0.244 | 0.702 | 0.878 | 0.893 | 0.723 | 0.55 | – | – | – | – | 0.55 | 0.566 | 0.522 | 0.502 | 0.487 | –
12 | NCI-H1563 | 0.623 | 0.74 | 0.632 | 0.687 | 0.641 | 0.49 | 0.462 | 0.486 | 0.377 | 0.465 | – | – | – | – | – | – | – | – | – | –
13 | NCI-H1623 | 0.637 | 0.528 | 0.415 | 0.29 | 0.622 | 0.619 | 0.501 | 0.602 | 0.21 | 0.709 | – | – | – | – | – | – | – | – | – | –
14 | NCI-H1648 | – | – | – | – | – | – | – | – | – | – | 1.01 | 0.924 | 1.61 | 1.35 | 0.487 | 0.6 | 0.613 | 0.524 | 0.376 | 0.951
15 | NCI-H1650 | 0.434 | 0.463 | 0.345 | 0.331 | 0.421 | 0.42 | 0.402 | 0.428 | 0.39 | 0.311 | – | – | – | – | 0.408 | 0.452 | 0.393 | 0.384 | 0.453 | –
16 | NCI-H1703 | – | – | – | – | – | – | – | – | – | – | 0.125 | 0.131 | – | 0.105 | – | – | – | – | – | –
17 | NCI-H2009 | 0.473 | 0.531 | 0.468 | 0.443 | 0.435 | 0.18 | 0.268 | 0.199 | 0.171 | 0.154 | – | – | – | – | 0.366 | 0.437 | 0.387 | 0.355 | 0.377 | –
18 | NCI-H2023 | 0.451 | 0.482 | 0.512 | 0.457 | 0.411 | 0.592 | 0.56 | 0.502 | 0.487 | 0.465 | – | – | – | – | 0.249 | 0.21 | 0.217 | 0.165 | 0.166 | –
19 | NCI-H2228 | 0.354 | 0.393 | 0.315 | 0.33 | 0.357 | 0.677 | 0.505 | 0.546 | 0.482 | 0.436 | – | – | – | – | – | – | – | – | – | –
20 | SK-LU-1 | 0.433 | 0.611 | 0.488 | 0.365 | 0.405 | 0.132 | 0.138 | 0.136 | 0.109 | 0.121 | – | – | – | – | 0.707 | 0.796 | 0.623 | 0.616 | 0.647 | –
21 | SK-MES-1 | 0.63 | 0.712 | 0.658 | 0.583 | 0.571 | 0.398 | 0.398 | 0.358 | 0.279 | 0.334 | – | – | – | – | 0.365 | 0.409 | 0.364 | 0.34 | 0.327 | –
22 | SW 1573 | 0.363 | 0.487 | 0.368 | 0.363 | 0.284 | 0.405 | 0.592 | 0.433 | 0.259 | 0.231 | – | – | – | – | 0.595 | 0.471 | 0.535 | 0.516 | 0.394 | –
